Experimental data published in patent publication US7947734B2, “Substituted para-trifluoromethyl phenylate compounds and its preparation and use thereof” (Sinochem Corporation, priority 2005, dated 2011).

Assays:
[1] = test system: wheat powdery mildew (Blumeria graminis); assay: Fungicidal protective activity against wheat powdery mildew on potted plants; type: in vivo
[2] = test system: wheat powdery mildew (Blumeria graminis); assay: Therapy activity against wheat powdery mildew on potted plants; type: in vivo
[3] = test system: Myzus persicae; assay: Insecticidal activity, Airbrush spraying tower, mortality; details: 600 mg/L
Method: (§1) Technical samples were dissolved in acetone/methanol (1:1) and diluted to required concentration with water containing 0.1% of tween 80.
(§2) Armyworm (Leucania separata), diamondback moth (Plutella xylostella) culex mosquitoes (Culex pippens pallens), Myzus persicae (Myzus persicae and Carmine spider mite (Tetranychus cinnabarinus) were treated with Airbrush spraying tower, and culex mosquito was treated with dipping culture method. The pressure of Airbrush spraying tower was 10 psi (about 0.7 kg/cm2) and the amount of spraying was 0.5 ml. Mortality investigation of test insects was carried out 2 to 3 days after the treatment.

[4] = test system: Carmine spider mite (Tetranychus cinnabarinus); assay: Acaricidal activity, Airbrush spraying tower, mortality
Method: as §1, §2

[5] = test system: cucumber downy mildew (Pseudoperonospora cubenis); assay: Fungicidal protective activity against cucumber downy mildew on potted plants; type: in vivo; details: 400 mg/L
[6] = 0.19 mg/L, wheat powdery mildew
[7] = 0.39 mg/L, wheat powdery mildew
[8] = 0.78 mg/L, wheat powdery mildew
[9] = 1.56 mg/L, wheat powdery mildew
[10] = 3.13 mg/L, wheat powdery mildew
[11] = 6.25 mg/L, wheat powdery mildew
[12] = 12.5 mg/L, wheat powdery mildew

SMILES | Protective activity % one day [1, 6] | Protective activity % one day [1, 7] | Protective activity % one day [1, 8] | Protective activity % one day [1, 9] | Protective activity % one day [1, 10] | Protective activity % one day [1, 11] | control against wheat powdery mildew ([1]; 12.5 mg/L) | Protective activity % one day [1, 12] | Protective activity % one day ([1]; 25 mg/L, wheat powdery mildew) | control against wheat powdery mildew ([1]; 200 mg/L) | control against wheat powdery mildew ([1]; 400 mg/L) | control against cucumber downy mildew [5] | also measured
COC=C(C(=O)OC)c1ccccc1COc1ccc(C(F)(F)F)cc1Cl [compound 1] | 30% | 55% | 90% | 100% | 100% | 100% | 100% | 100% | 100% | 100% | 100% | 100% | Therapy activity % 3 days ([2]; 1.56 mg/L): 50%; Therapy activity % 3 days ([2]; 3.125 mg/L): 80%; Therapy activity % 3 days ([2]; 6.25 mg/L): 100%; Therapy activity % 3 days ([2]; 12.5 mg/L): 100%; control of Myzus persicae [3]: 100%; control of Carmine spider mite ([4]; 10 mg/L): 95%; control of Carmine spider mite ([4]; 50 mg/L): 100%; control of Carmine spider mite ([4]; 150 mg/L): 100%; control of Carmine spider mite ([4]; 600 mg/L): 100%
CC(C)(C)c1ccc(CSc2cnn(C(C)(C)C)c(=O)c2Cl)cc1 [Pyridaben, reference compound] | – | – | – | – | – | – | – | – | – | – | – | – | control of Carmine spider mite ([4]; 10 mg/L): 95%
COC=C(C(=O)OC)c1ccccc1Oc1cc(Oc2ccc(C(F)(F)F)cc2Cl)ncn1 [compound 16] | – | – | – | – | – | – | – | – | – | – | 100% | – | –
CO/N=C(/C(=O)OC)c1ccccc1COc1ccccc1C [kresoxin-methyl, reference compound] | – | – | – | – | – | – | – | – | – | – | – | – | inhibition at 0.19 µg/mL ([1]; Blumeria graminis, 24 h, 0.19 mg/L, wheat powdery mildew, read-out: Protective activity % one day): 0%; inhibition at 0.39 µg/mL ([1]; Blumeria graminis, 24 h, 0.39 mg/L, wheat powdery mildew, read-out: Protective activity % one day): 0%; inhibition at 0.78 µg/mL ([1]; Blumeria graminis, 24 h, 0.78 mg/L, wheat powdery mildew, read-out: Protective activity % one day): 15%; inhibition at 1.56 µg/mL ([1]; Blumeria graminis, 24 h, 1.56 mg/L, wheat powdery mildew, read-out: Protective activity % one day): 40%; inhibition at 3.13 µg/mL ([1]; Blumeria graminis, 24 h, 3.13 mg/L, wheat powdery mildew, read-out: Protective activity % one day): 70%; inhibition at 6.25 µg/mL ([1]; Blumeria graminis, 24 h, 6.25 mg/L, wheat powdery mildew, read-out: Protective activity % one day): 98%; inhibition at 12.5 µg/mL ([1]; Blumeria graminis, 24 h, 12.5 mg/L, wheat powdery mildew, read-out: Protective activity % one day): 100%; inhibition at 25 µg/mL ([1]; Blumeria graminis, 24 h, 25 mg/L, wheat powdery mildew, read-out: Protective activity % one day): 100%; inhibition at 1.56 µg/mL ([2]; Blumeria graminis, 72 h, 1.56 mg/L, read-out: Therapy activity % 3 days): 10%; inhibition at 3.125 µg/mL ([2]; Blumeria graminis, 72 h, 3.125 mg/L, read-out: Therapy activity % 3 days): 15%; inhibition at 6.25 µg/mL ([2]; Blumeria graminis, 72 h, 6.25 mg/L, read-out: Therapy activity % 3 days): 20%; inhibition at 12.5 µg/mL ([2]; Blumeria graminis, 72 h, 12.5 mg/L, read-out: Therapy activity % 3 days): 100%
COC(=O)N(OC)c1ccccc1COc1ccc(C(F)(F)F)cc1Cl [compound 10] | – | – | – | – | – | – | – | – | – | more than 95% | 100% | – | –
CNC(=O)C(=NOC)c1ccccc1COc1ccc(C(F)(F)F)cc1Cl [compound 7] | 50% | 85% | 90% | 100% | 100% | 100% | 100% | 100% | 100% | 100% | 100% | 100% | –
CON=C(C(=O)OC)c1ccccc1COc1ccc(C(F)(F)F)cc1Cl [compound 4] | 70% | 90% | 98% | 100% | 100% | 100% | 100% | 100% | 100% | 100% | 100% | 100% | control of Carmine spider mite ([4]; 600 mg/L): 100%
